# Data from paper PMC10518717, “High-Throughput Screening and Proteomic Characterization of Compounds Targeting Myeloid-Derived Suppressor Cells” (Molecular & Cellular Proteomics : MCP, 2023).
# Assays:
# NUP-MDSC = assay: Global proteome expression profiling of compound-treated NUP-MDSC (TMT LC-MS/MS); format: cell-based, mouse; details: 72 h; for log2 FC ENT_300/DMSO: 300 nM
# Description: After treatments, medium was removed, cells were washed twice with PBS, and the cell pellets were further subjected to proteomic sample preparation.
# The cell pellet was reconstituted in 2% SDS in 50 mM Tris–HCl pH 7.5 and lysed by heating to 95 °C for 10 min. One microliter of 100% TFA was added to each sample to hydrolyze DNA, and the pH was subsequently adjusted to 8.5 with 3 M Tris solution. Disulfide bonds were reduced with 10 mM DTT for 45 min at 37 °C, followed by alkylation of cysteines with 55 mM CAA for 30 min at room temperature. Prior to tryptic digestion, the detergent was removed from lysates by SP3 cleanup on an Agilent BRAVO system (Agilent Technologies), following the protocol first described by Hughes et al. ([34]). Briefly, lysate containing 200 μg of protein was mixed with SP3 beads, and proteins were precipitated onto a 50:50 mixture of Sera-Mag Speed Bead types A and B (Thermo Fisher Scientific) in 58% acetonitrile. Beads were washed three times with 80% ethanol in water and once with acetonitrile. Tryptic digest was performed in 100 μl of digestion buffer (2 mM CaCl2 in 25 mM Hepes, pH 8.5) with a 1:50 enzyme-to-protein ratio. Bead-precipitated proteins were digested at 37 °C overnight. On the next day, the supernatant of each sample was transferred to a new well and vacuum dried.
# Dried peptides were reconstituted in water and labeled with the respective TMT10plex-labeling reagent as described previously ([35]) with a protein to tandem mass tag (TMT) reagent ratio of 1:2. Labeled samples were pooled, vacuum dried, and reconstituted in 0.1% formic acid (FA) prior to desalting on SepPAC50 columns (waters corp.). Peptides were fractionated using a Dionex Ultra 3000 HPLC system with a Waters XBridge BEH130 C18 3.5 um 2.1 × 250 mm column as described previously ([36]). Ninety-six fractions were collected and pooled to 48. For the full proteome analysis, one fifth of each fraction was transferred to a new 96-well plate and both plates were vacuum dried. For the phosphopeptide analysis, dried peptides were reconstituted in 55 μl 0.1% TFA in 30% ACN, pooled from 48 to 12 fractions, and mixed with 70 μl priming buffer (0.1% TFA, 100% ACN). Phosphopeptides were enriched from each of the 12 fractions using Fe(III)-IMAC-NTA cartridges on the AssayMAP BRAVO (Agilent Technologies) platform as described previously ([36]). Phosphopeptides were eluted with 60 μl 1% ammonia, vacuum dried, and stored at −20 °C prior to LC-MS/MS analysis.
# The Fusion Lumos was operated in data-dependent acquisition and positive ionization mode. Samples were measured employing a MS3 method. In brief, full scan MS1 spectra were recorded in the orbitrap (OT) from 360 to 1560 m/z at 60,000 resolution using an automatic gain control (AGC) target value of 4e5 charges and a maximum injection time (maxIT) of 50 ms. Iontrap-MS2 spectra for peptide identification were acquired using higher energy collision dissociation (HCD) fragmentation with 32% normalized collision energy (NCE), an isolation window of 0.6 m/z, and an AGC target value of 1.2e4 charges. To obtain quantitative information on TMT reporter ions, each peptide precursor was fragmented again as for MS2 analysis followed by synchronous selection of the up to eight most intense peptide fragments in the iontrap ([37]) and further fragmentation via HCD using a NCE of 55%. The MS3 scan was recorded in the OT at 50,000 resolution (scan range 100–1000 m/z, isolation window of 1.2 m/z, AGC of 1e5 charges, maxIT of 86 ms). The cycle time was 1.2 s, and the dynamic exclusion lasted for 50 s.
# Peptide, protein, and phosphorylation site identification and quantification were performed with MaxQuant software (v. 1.6.3.3, https://www.maxquant.org/) with standard settings for reporter ion MS3 unless described otherwise ([39]). Isotope impurities of the TMT lot were specified to allow MaxQuant the automated correction of TMT intensities. […]
# NUP-MDSC cell lysate [1] = biological target: T1, NUP-MDSC cell lysate (Mus musculus, UniProt G5E8Z3); assay: Chemoproteomic competition pulldown assay (iCor/iEnt affinity matrix), proteome-wide; format: binding; details: protein 2310050C09Rik (G5E8Z3)
# T1 construct: endogenous in cells; host or cells: mouse NUP-MDSC (lysate)
# T1 sequence (G5E8Z3 1-280): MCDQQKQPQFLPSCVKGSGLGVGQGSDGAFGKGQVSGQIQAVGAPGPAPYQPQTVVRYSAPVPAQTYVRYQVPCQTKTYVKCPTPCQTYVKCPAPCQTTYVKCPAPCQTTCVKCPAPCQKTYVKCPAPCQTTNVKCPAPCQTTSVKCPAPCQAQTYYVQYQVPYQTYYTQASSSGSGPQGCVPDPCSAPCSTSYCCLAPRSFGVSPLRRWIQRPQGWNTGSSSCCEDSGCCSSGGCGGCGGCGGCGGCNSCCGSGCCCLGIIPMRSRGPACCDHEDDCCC
# From the text: (§1) Targets of the inhibitors were annotated manually.
# NUP-MDSC cell lysate [2] = biological target: T2, NUP-MDSC cell lysate (Mus musculus, UniProt Q8WUR0); assay: as above; format: binding; details: protein 1600014C10Rik (Protein C19orf12 homolog)
# T2 construct: endogenous in cells; host or cells: mouse NUP-MDSC (lysate)
# T2 sequence (Q8WUR0 1-141): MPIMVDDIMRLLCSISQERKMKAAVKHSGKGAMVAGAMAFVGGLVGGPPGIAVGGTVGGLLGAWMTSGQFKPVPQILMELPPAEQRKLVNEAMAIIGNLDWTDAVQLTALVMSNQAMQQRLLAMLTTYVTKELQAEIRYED
# From the text: as §1
# NUP-MDSC cell lysate [3] = assay: as above; format: binding, mouse; details: NUP-MDSC lysate; iCor and iEnt
# From the text: as §1
# [4] = test system: HDAC1/2 and the CoREST complex; details: NUP-MDSC lysate; competition with iCor pulldown
# Description: In vitro–differentiated NUP-MDSC were harvested, washed twice with PBS, and cell pellets were stored at −80 °C. For lysis, the pellets were slowly thawed at 20 °C and mixed with lysis buffer (0.8% Igepal, 50 mM Tris–HCl pH 7.5, 5% glycerol, 1.5 mM MgCl2, 150 mM NaCl, 1 mM Na3VO4, 25 mM NaF, 1 mM DTT, and supplemented with protease inhibitors (SigmaFast, Sigma) and phosphatase inhibitors (prepared in-house according to phosphatase inhibitor cocktail 1, 2, and 3 from Sigma-Aldrich)). Before usage, the cell lysates were cleared from debris by ultracentrifugation (52,000×g for 20 min at 4 °C); protein concentration was determined by Bradford assay. […]
# Peptides were analyzed via LC-MS/MS on a Dionex Ultimate3000 nano HPLC coupled to an Orbitrap Fusion Lumos mass spectrometer (Thermo Fisher Scientific). […]
# The mass spectrometer was operated in data-dependent mode, automatically switching between MS1 and MS2 spectra. […] Up to 12 peptide precursors were isolated (isolation width of 1.2 Th, maxIT of 75 ms, AGC value of 2e5), fragmented by HCD using 30% NCE, and analyzed in the OT at a resolution of 15,000. […]
# Protein identification and quantification was performed using MaxQuant (v 1.6.1.0) by searching the LC-MS/MS data against all canonical protein sequences as annotated in the Swissprot reference database (v03.12.15, 20,193 entries, downloaded 22.03.2016) using the embedded search engine Andromeda. […]
smiles,measurement,setting,value
Nc1ccccc1NC(=O)c1ccc(CNC(=O)OCc2cccnc2)cc1 [entinostat],"protein expression of Il1a, Il1b, and Il1rn",NUP-MDSC; 30 and 300 nM,dose-dependently upregulated
same,"protein level of Cxcr3, Ccl9, and Ccr5","NUP-MDSC; 30 and 300 nM, dose-dependent manner",increased
same,log2 FC ENT_300/DMSO,NUP-MDSC; protein Cask,-0.505
same,log2 FC ENT_300/DMSO,NUP-MDSC; protein Hsf1,-0.1449
same,log2 FC ENT_300/DMSO,NUP-MDSC; protein Inpp5j,0.4672
same,log2 FC ENT_300/DMSO,NUP-MDSC; protein Magohb;Magoh,0.03399
same,Intensity 3nM,NUP-MDSC cell lysate [1]; Entinostat 3nM,4673000
same,LFQ intensity 3nM,NUP-MDSC cell lysate [1]; Entinostat 3nM,0
same,Intensity 10nM,NUP-MDSC cell lysate [1]; Entinostat 10nM,39076000
same,LFQ intensity 10nM,NUP-MDSC cell lysate [1]; Entinostat 10nM,48940000
same,Intensity 30nM,NUP-MDSC cell lysate [1]; Entinostat 30nM,0
same,LFQ intensity 30nM,NUP-MDSC cell lysate [1]; Entinostat 30nM,0
same,Intensity 100nM,NUP-MDSC cell lysate [1]; Entinostat 100nM,0
same,LFQ intensity 100nM,NUP-MDSC cell lysate [1]; Entinostat 100nM,0
same,Intensity 300nM,NUP-MDSC cell lysate [1]; Entinostat 300nM,63615000
same,LFQ intensity 300nM,NUP-MDSC cell lysate [1]; Entinostat 300nM,92239000
same,Intensity 1000nM,NUP-MDSC cell lysate [1]; Entinostat 1000nM,0
same,LFQ intensity 1000nM,NUP-MDSC cell lysate [1]; Entinostat 1000nM,0
same,Intensity 3000nM,NUP-MDSC cell lysate [1]; Entinostat 3000nM,17259000
same,LFQ intensity 3000nM,NUP-MDSC cell lysate [1]; Entinostat 3000nM,18337000
same,Intensity 30000nM,NUP-MDSC cell lysate [1]; Entinostat 30000nM,37204000
same,LFQ intensity 30000nM,NUP-MDSC cell lysate [1]; Entinostat 30000nM,38240000
same,Intensity 3nM,NUP-MDSC cell lysate [2]; Entinostat 3nM,20883000
same,LFQ intensity 3nM,NUP-MDSC cell lysate [2]; Entinostat 3nM,42321000
same,Intensity 10nM,NUP-MDSC cell lysate [2]; Entinostat 10nM,34795000
same,LFQ intensity 10nM,NUP-MDSC cell lysate [2]; Entinostat 10nM,40587000
same,Intensity 30nM,NUP-MDSC cell lysate [2]; Entinostat 30nM,27408000
same,LFQ intensity 30nM,NUP-MDSC cell lysate [2]; Entinostat 30nM,39634000
same,Intensity 100nM,NUP-MDSC cell lysate [2]; Entinostat 100nM,29285000
same,LFQ intensity 100nM,NUP-MDSC cell lysate [2]; Entinostat 100nM,35458000
same,Intensity 300nM,NUP-MDSC cell lysate [2]; Entinostat 300nM,23203000
same,LFQ intensity 300nM,NUP-MDSC cell lysate [2]; Entinostat 300nM,36056000
same,Intensity 1000nM,NUP-MDSC cell lysate [2]; Entinostat 1000nM,28303000
same,LFQ intensity 1000nM,NUP-MDSC cell lysate [2]; Entinostat 1000nM,37293000
same,Intensity 3000nM,NUP-MDSC cell lysate [2]; Entinostat 3000nM,35943000
same,LFQ intensity 3000nM,NUP-MDSC cell lysate [2]; Entinostat 3000nM,42228000
same,Intensity 30000nM,NUP-MDSC cell lysate [2]; Entinostat 30000nM,27116000
same,LFQ intensity 30000nM,NUP-MDSC cell lysate [2]; Entinostat 30000nM,26320000
same,additional targets identified,NUP-MDSC cell lysate [3],No additional targets
same,target affinity,[4],high affinities
